Values belong to the compound of their own block, whether it stands above or below them. The source made the active and inactive calls. The calls are words filed in the database; no cut-off is given here.
How the values were obtained:
[1] = Inhibition of palmitoylation site of TEAD (unknown origin) in human Hippo Pathway/TEAD Luciferase reporter MCF7 cells assessed as reduction in transcriptional activation by measuring luciferase activity incubated for 24 hrs by Promega One-Glo luciferase reagent based assay; format: cell-based, Hippo Pathway/TEAD Luciferase reporter MCF7 cell; conditions: MCF7, 24 h
NCI-H226 [2] = experiment: Cytotoxicity against human NCI-H226 cells assessed as reduction in cell viability incubated for 144 hrs by CellTiter-Glo luciferase assay; format: functional, cell-based; conditions: NCI-H226, 144 h
[3] = Metabolic stability in mouse liver microsomes assessed as parent compound remaining measured after 15 mins by LC-MS/MS analysis; format: ADME, Microsome; conditions: read-out: Stability
[4] = Metabolic stability in mouse liver microsomes assessed as parent compound remaining measured after 30 mins by LC-MS/MS analysis; format: ADME, Microsome; conditions: read-out: Stability
[5] = Metabolic stability in human liver microsomes assessed as parent compound remaining measured after 15 mins by LC-MS/MS analysis; format: ADME, Microsome; conditions: read-out: Stability
[6] = Metabolic stability in human liver microsomes assessed as parent compound remaining measured after 30 mins by LC-MS/MS analysis; format: ADME, Microsome; conditions: read-out: Stability
[7] = test system: Hippo Pathway/TEAD Luciferase reporter MCF7 cell; experiment: Inhibition of palmitoylation site of TEAD (unknown origin) in human Hippo Pathway/TEAD Luciferase reporter MCF7 cells assessed as reduction in transcriptional activation by measuring luciferase activity at 1000 nM incubated for 24 hrs by Promega One-Glo luciferase reagent based assay
NCI-H226 [8] = experiment: Inhibition of CYR61 gene expression in human NCI-H226 cells at 300 nM incubated for 24 hrs by RT-qPCR analysis; format: functional, cell-based
NCI-H226 [9] = experiment: Inhibition of CTGF gene expression in human NCI-H226 cells incubated for 24 hrs by RT-qPCR analysis; format: functional, cell-based; conditions: dose 30-300 nM
[10] = Selectivity index, ratio of IC50 for human NCI-H28 cells to IC50 for human NCI-H226 cells
[11] = (§1) Inhibition of CTGF gene expression in human NCI-H226 cells at 30 nM incubated for 24 hrs by RT-qPCR analysis relative to control; format: functional
[12] = (§2) Inhibition of CYR61 gene expression in human NCI-H226 cells at 30 nM incubated for 24 hrs by RT-qPCR analysis relative to control; format: functional
NCI-H226 [13] = experiment: Inhibition of CTGF gene expression in human NCI-H226 cells at 300 nM incubated for 24 hrs by RT-qPCR analysis; format: functional, cell-based
NCI-H226 [14] = experiment: Inhibition of CYR61 gene expression in human NCI-H226 cells incubated for 24 hrs by RT-qPCR analysis; format: functional, cell-based; conditions: dose 30-300 nM
[15] = target: Transcriptional enhancer factor TEF-1 (Homo sapiens) (UniProt P28347); experiment: Inhibition of Myc-tagged TEAD1 (unknown origin) palmitoylation transfected in HEK293 cells at 300 nM incubated for 24 hrs by palmitoylation assay; format: cell-based
[16] = target: Transcriptional enhancer factor TEF-4 (Homo sapiens) (UniProt Q15562); experiment: Inhibition of Myc-tagged TEAD2 (unknown origin) palmitoylation transfected in HEK293 cells at 300 nM incubated for 24 hrs by palmitoylation assay; format: cell-based
[17] = target: Transcriptional enhancer factor TEF-5 (Homo sapiens) (UniProt Q99594); experiment: Inhibition of Myc-tagged TEAD3 (unknown origin) palmitoylation transfected in HEK293 cells at 300 nM incubated for 24 hrs by palmitoylation assay; format: cell-based
[18] = target: Transcriptional enhancer factor TEF-3 (Homo sapiens) (UniProt Q15561); experiment: Inhibition of Myc-tagged TEAD4 (unknown origin) palmitoylation transfected in HEK293 cells at 300 nM incubated for 24 hrs by palmitoylation assay; format: cell-based
NCI-H226 [19] = experiment: Cytotoxicity against human NCI-H226 cells assessed as reduction in cell viability at 0.1 to 1 uM incubated for 12 to 48 hrs; format: functional, cell-based; conditions: dose 0.1-1 µM, time 12-48 hrs
HEK293 = experiment: Cytotoxicity against HEK293 cells assessed as reduction in cell viability at 0.1 to 1 uM incubated for 12 to 48 hrs; format: toxicity, cell-based; conditions: human, hek293, 1 µM; dose lower 0.1 µM, time lower 12 hrs, dose upper 1 µM, time upper 48 hrs
[20] = Cmax in mouse at 10 mg/kg, po measured after 24 hrs by LC-MS/MS analysis; format: ADME, organism-based; conditions: in vivo
[21] = Tmax in mouse at 10 mg/kg, po measured after 24 hrs by LC-MS/MS analysis; format: ADME, organism-based; conditions: in vivo
[22] = AUClast in mouse at 10 mg/kg, po measured after 24 hrs by LC-MS/MS analysis; format: ADME, organism-based; conditions: in vivo
[23] = MRT in mouse at 10 mg/kg, po measured after 24 hrs by LC-MS/MS analysis; format: ADME, organism-based; conditions: in vivo
[24] = Half-life in mouse at 10 mg/kg, po measured after 24 hrs by LC-MS/MS analysis; format: ADME, organism-based; conditions: in vivo
NCI-H226 [25] = experiment: Antitumor activity against human NCI-H226 cells xenografted in mouse assessed as reduction in tumor size at 10 to 30 mg/kg, po measured upto 28 days; format: functional, organism-based; conditions: dose 10-30 mg/kg, time <= 28.0 day
NCI-H226 [26] = experiment: Antitumor activity against human NCI-H226 cells xenografted in mouse assessed as tumor growth inhibition at 30 mg/kg, po measured after 17 days; format: functional, organism-based; conditions: time 17.0 day
[27] = Toxicity in mouse xenografted with human NCI-H226 cells assessed as body weight loss at 10 to 30 mg/kg, po administered for 28 days; format: organism-based; conditions: in vivo, 672 h, dose 10-30 mg/kg, time 28 day
NCI-H226 [28] = experiment: as §1; format: functional
NCI-H226 [29] = experiment: as §2; format: functional
NCI-H226 [30] = experiment: Antitumor activity against human NCI-H226 cells xenografted in mouse assessed as reduction in tumor volume at 10 mg/kg, po administered for 28 days; format: functional, organism-based; conditions: time 28.0 day
NCI-H226 [31] = experiment: Antitumor activity against human NCI-H226 cells xenografted in mouse assessed as tumor growth inhibition at 30 mg/kg, po administered for 28 days; format: functional, organism-based; conditions: time 28.0 day

Sequence of Transcriptional enhancer factor TEF-5 (Homo sapiens) (Q99594 whole entry): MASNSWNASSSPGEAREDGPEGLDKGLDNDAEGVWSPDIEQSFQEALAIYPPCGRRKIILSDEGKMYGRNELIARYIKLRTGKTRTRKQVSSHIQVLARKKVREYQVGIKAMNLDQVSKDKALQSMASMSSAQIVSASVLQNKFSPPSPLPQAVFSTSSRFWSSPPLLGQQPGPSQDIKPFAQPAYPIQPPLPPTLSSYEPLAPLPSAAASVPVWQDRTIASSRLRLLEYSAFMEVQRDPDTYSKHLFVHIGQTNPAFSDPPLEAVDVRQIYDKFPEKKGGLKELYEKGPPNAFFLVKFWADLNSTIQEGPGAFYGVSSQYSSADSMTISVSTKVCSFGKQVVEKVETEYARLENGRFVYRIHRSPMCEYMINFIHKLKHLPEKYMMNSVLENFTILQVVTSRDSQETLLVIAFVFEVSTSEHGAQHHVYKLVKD
Sequence of Transcriptional enhancer factor TEF-1 (Homo sapiens) (P28347 whole entry): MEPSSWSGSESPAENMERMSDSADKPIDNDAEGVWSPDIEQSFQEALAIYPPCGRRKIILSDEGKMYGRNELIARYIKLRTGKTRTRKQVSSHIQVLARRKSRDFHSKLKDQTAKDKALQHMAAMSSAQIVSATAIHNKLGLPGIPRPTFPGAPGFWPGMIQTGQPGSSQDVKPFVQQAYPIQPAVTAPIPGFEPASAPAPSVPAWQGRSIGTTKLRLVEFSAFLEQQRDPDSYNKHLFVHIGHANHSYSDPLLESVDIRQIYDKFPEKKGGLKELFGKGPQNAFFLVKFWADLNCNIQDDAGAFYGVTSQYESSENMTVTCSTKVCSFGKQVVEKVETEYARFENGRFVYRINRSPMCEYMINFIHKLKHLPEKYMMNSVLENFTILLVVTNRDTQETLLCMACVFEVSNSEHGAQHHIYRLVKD
Sequence of Transcriptional enhancer factor TEF-3 (Homo sapiens) (Q15561 whole entry): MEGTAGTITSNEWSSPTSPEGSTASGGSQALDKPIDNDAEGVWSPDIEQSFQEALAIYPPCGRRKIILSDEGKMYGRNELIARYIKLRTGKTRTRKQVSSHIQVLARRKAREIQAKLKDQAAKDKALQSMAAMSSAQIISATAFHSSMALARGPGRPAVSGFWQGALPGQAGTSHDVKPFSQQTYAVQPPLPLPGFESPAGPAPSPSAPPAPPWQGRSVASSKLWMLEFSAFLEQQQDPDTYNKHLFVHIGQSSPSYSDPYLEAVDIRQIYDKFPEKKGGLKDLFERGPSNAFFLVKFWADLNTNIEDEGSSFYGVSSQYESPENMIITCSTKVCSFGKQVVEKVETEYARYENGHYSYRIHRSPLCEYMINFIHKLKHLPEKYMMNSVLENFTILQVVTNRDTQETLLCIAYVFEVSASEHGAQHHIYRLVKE
Sequence of Transcriptional enhancer factor TEF-4 (Homo sapiens) (Q15562 whole entry): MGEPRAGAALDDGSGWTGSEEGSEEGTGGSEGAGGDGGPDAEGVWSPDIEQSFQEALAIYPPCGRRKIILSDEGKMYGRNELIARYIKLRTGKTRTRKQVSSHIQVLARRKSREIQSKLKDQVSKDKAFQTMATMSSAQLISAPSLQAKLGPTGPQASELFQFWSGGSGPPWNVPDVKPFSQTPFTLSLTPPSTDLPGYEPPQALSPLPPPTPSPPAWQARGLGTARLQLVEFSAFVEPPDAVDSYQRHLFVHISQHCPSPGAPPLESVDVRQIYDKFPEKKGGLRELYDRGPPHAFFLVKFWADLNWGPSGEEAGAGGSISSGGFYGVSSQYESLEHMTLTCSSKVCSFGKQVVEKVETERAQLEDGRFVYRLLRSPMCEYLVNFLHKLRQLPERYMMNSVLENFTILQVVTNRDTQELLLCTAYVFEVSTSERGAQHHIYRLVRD

SMILES: C=CC(=O)Nc1ccc(C)c(Oc2ccc(Cl)cc2)c1
- IC50 [1]: 0.61 nM
- IC50 (NCI-H226 [2]): 10.6 nM
- remaining at 0.25 h [3]: 26.4%
- remaining at 0.5 h [4]: 9.7%
- remaining at 0.25 h [5]: 77.6%
- remaining at 0.5 h [6]: 63.5%

SMILES: C=CC(=O)N1CCc2ccc(-c3ccc(C)cc3)cc2C1
- IC50 [1]: 4.26 nM
- IC50 (NCI-H226 [2]): 3.03 nM

SMILES: CN(C)C/C=C/C(=O)N1CCc2ccc(-c3ccc(C(F)(F)F)cc3)cc2C1
- IC50 [1]: 0.65 nM
- inhibition [7]: Active; Incomplete Inhibition Observed
- inhibition (NCI-H226 [8]): Active; Minimal Inhibition Observed
- inhibition (NCI-H226 [9]): Dose-dependent-effect

SMILES: CC#CC(=O)N1CCc2ccc(-c3ccc(C(F)(F)F)cc3)cc2C1
- IC50 [1]: 52.4 nM

SMILES: C=CC(=O)N1CCc2ccc(-c3ccccc3)cc2C1
- IC50 [1]: 3.15 nM
- IC50 (NCI-H226 [2]): 7.04 nM

SMILES: C[C@H](NC(=O)c1ccc2c(-c3ccc(C(F)(F)F)cc3)cccc2c1)c1ccccn1
- IC50 [1]: 1.9 nM
- IC50 (NCI-H226 [2]): 27.1 nM

SMILES: CCC(=O)N1CCc2ccc(-c3ccc(C(F)(F)F)cc3)cc2C1
- IC50 [1]: 1510 nM

Continued, in another order:

- IC50 [1]: 5.36 nM
SMILES: C=CC(=O)N1CCc2ccc(-c3cccs3)cc2C1
- IC50 (NCI-H226 [2]): 402 nM

- IC50 [1]: 0.84 nM
SMILES: C=CC(=O)N1CCc2ccc(-c3ccc(F)cc3)cc2C1
- IC50 (NCI-H226 [2]): 21.6 nM

- IC50 [1]: 0.88 nM
SMILES: C=CC(=O)N1CCc2ccc(-c3cccc(C(F)(F)F)c3)cc2C1
- IC50 (NCI-H226 [2]): 85.2 nM

- IC50 [1]: 0.34 nM
- inhibition [15]: Active
- inhibition [16]: Active
- inhibition [17]: Active
- inhibition [18]: Active
- remaining at 0.25 h [3]: 75.9%
- remaining at 0.5 h [4]: 62.7%
- remaining at 0.25 h [5]: 95.9%
- remaining at 0.5 h [6]: 79.6%
- Cmax [20]: 974 ng/mL
- Tmax [21]: 1.12 h
- AUC(0-t) at 24 h [22]: 3810 ng·h/mL
- MRT [23]: 6.08 h
- half-life [24]: 3.06 h
SMILES: C=CC(=O)N1CCc2ccc(-c3ccc(C(F)(F)F)cc3)cc2C1
- IC50 (NCI-H226 [2]): 3.34 nM
- Ratio IC50 [10]: >150
- inhibition at 0.03 µM [11]: > 50%
- inhibition at 0.03 µM [12]: > 50%
- inhibition (NCI-H226 [13]): Active; Higher Inhibition Observed
- inhibition (NCI-H226 [8]): Active; Higher Inhibition Observed
- inhibition (NCI-H226 [9]): Dose-dependent-effect
- inhibition (NCI-H226 [14]): Dose-dependent-effect
- Activity (NCI-H226 [19]): inactive
- Activity (HEK293): Non-toxic
- Activity (NCI-H226 [25]): Active
- Activity (NCI-H226 [26]): Active; Compound Showed Sustain Suppression Without Rebound
- Activity [27]: Non-toxic

- IC50 [1]: 1.34 nM
- inhibition [15]: Active
- inhibition [17]: Active
- remaining at 0.25 h [3]: 89.2%
- remaining at 0.5 h [4]: 85.1%
- remaining at 0.25 h [5]: 98.2%
- remaining at 0.5 h [6]: 97.7%
- Cmax [20]: 1390 ng/mL
- Tmax [21]: 0.75 h
- AUC(0-t) at 24 h [22]: 5410 ng·h/mL
- MRT [23]: 7.5 h
- half-life [24]: 5.62 h
SMILES: C=C(F)C(=O)N1CCc2ccc(-c3ccc(C(F)(F)F)cc3)cc2C1
- IC50 (NCI-H226 [2]): 30.9 nM
- Ratio IC50 [10]: >20
- inhibition (NCI-H226 [28]): inactive
- inhibition (NCI-H226 [29]): inactive
- inhibition (NCI-H226 [13]): Active
- inhibition (NCI-H226 [8]): Active
- Activity (NCI-H226 [19]): inactive
- Activity (HEK293): Non-toxic
- Activity (NCI-H226 [30]): Active; Modest Effect Observed
- Activity (NCI-H226 [31]): Active
- Activity [27]: Non-toxic

- IC50 [1]: 4.11 nM
SMILES: C=CC(=O)N1CCc2ccc(-c3ccc(C(F)(F)F)cn3)cc2C1
- IC50 (NCI-H226 [2]): 26.6 nM

- IC50 [1]: 1.04 nM
SMILES: C=CC(=O)N1CCc2ccc(-c3ccc(C(F)(F)F)cc3Cl)cc2C1
- IC50 (NCI-H226 [2]): 119 nM

- IC50 [1]: 0.36 nM
SMILES: C=CC(=O)N1CCc2ccc(-c3ccc(C(F)(F)F)c(F)c3)cc2C1
- IC50 (NCI-H226 [2]): 115 nM

- IC50 [1]: 0.7 nM
SMILES: C=CC(=O)N1CCc2ccc(-c3ccc(OC(F)(F)F)cc3)cc2C1
- IC50 (NCI-H226 [2]): 22.2 nM

- IC50 [1]: 5.48 nM
SMILES: C=CC(=O)N1CCc2ccc(-c3ccc(C(F)(F)F)nc3)cc2C1
- IC50 (NCI-H226 [2]): 391 nM

— ChEMBL document CHEMBL6083276, “Pan-Transcriptional Enhanced Associated Domain Palmitoylation Pocket Covalent Inhibitor” (J Med Chem, 2024)
